Columns and labels:
[1] = target: T1, Récepteur glucocorticoïde du thymus de rat (Rattus norvegicus, UniProt P06536); assay: Relative binding affinity, competition with tritiated dexamethasone, rat thymus cytosol; details: reference hormone dexaméthasone
T1 construct: les thymus sont prélevés et homogénéisés à 0°C; from tissue; host or cells: thymus cytosol (105 000 g supernatant) of adrenalectomised male Sprague Dawley rats
T1 sequence (P06536 1-795): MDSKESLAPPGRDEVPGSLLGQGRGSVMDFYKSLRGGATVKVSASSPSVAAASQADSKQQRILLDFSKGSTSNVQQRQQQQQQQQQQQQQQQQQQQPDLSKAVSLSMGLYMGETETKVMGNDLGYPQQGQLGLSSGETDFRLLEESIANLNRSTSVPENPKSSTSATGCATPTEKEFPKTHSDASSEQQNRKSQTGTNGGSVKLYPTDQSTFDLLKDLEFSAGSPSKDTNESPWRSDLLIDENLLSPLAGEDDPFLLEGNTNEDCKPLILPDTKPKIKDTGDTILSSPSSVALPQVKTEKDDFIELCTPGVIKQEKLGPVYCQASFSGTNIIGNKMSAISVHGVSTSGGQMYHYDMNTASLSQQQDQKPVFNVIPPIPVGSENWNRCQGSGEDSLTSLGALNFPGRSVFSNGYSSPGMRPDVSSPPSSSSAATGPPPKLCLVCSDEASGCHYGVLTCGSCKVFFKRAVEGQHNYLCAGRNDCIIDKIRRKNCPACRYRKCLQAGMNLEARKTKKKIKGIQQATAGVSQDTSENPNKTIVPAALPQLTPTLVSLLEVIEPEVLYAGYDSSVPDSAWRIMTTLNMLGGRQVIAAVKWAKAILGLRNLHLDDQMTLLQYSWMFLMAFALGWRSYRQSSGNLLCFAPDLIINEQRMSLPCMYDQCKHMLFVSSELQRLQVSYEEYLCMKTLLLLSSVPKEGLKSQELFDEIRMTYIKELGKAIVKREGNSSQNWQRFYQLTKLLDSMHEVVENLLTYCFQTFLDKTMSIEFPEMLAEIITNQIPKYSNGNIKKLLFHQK
Description: Récepteur glucocorticoïde du thymus de rat :
Des rats mâles Sprague Dawley EOPS de 160 à 200 g sont surrénalectomisés. 4 à 8 jours après cette ablation, les animaux sont sacrifiés, et les thymus sont prélevés et homogénéisés à 0°C dans un tampon Tris 10mM, saccharose 0,25M, dithiothreitol 2mM, HCl pH 7,4, à l'aide d'un Potter polyté-trafluoroéthylène-verre (1 g de tissu pour 10 ml de TS). L'homogénat est ensuite ultracentrifugé (105 000 g x 90 mn) à 0°C. Des aliquotes du surnageant ainsi obtenu, sont incubées à 0°C pendant un temps (t) avec une concentration constante (T) de dexaméthasone tritiée en présence de concentrations croissantes (O - 2 500.10⁻⁹M) soit de dexaméthasone froide, soit du produit froid à tester. La concentration de la dexaméthasone tritiée liée (B) est ensuite mesurée dans chaque incubat par la technique d'adsorption au charbon dextran.
(§1) Calcul de l'affinité relative de liaison:
(§2) Le calcul de l'affinité relative de liaison (ARL) est identique pour tous les récepteurs.
(§3) On trace les 2 courbes suivantes : le pourcentage de l'hormone tritiée liée (B)/(T) [formula] en fonction du logarithme de la concentration de l'hormone de référence froide et (B)/(T) [formula] en en fonction du logarithme de la concentration du produit froid testé.
(§4) On détermine la droite d'équation I₅₀ = ( (B)/(T) [formula] max + (B)/(T) [formula] min)/2. (B)/(T) [formula] max = Pourcentage de l'hormone tritiée liée pour une incubation de cette hormone tritiée à la concentration (T). (B)/(T) [formula] min = Pourcentage de l'hormone tritiée liée pour une incubation de cette hormone tritiée à la concentration (T) en présence d'un grand excès d'hormone froide (2500.10⁻⁹M).
(§5) Les intersections de la droite I₅₀ et des courbes permettent d'évaluer les concentrations de l'hormone de référence froide (CH) et du produit froid testé (CX) qui inhibent de 50% la liaison de l'hormone tritiée sur le récepteur.
(§6) L'affinité relative de liaison (ARL) du produit testé est déterminée par l'équation [formula]

[2] = target: T2, Récepteur progestogène de l'utérus de lapine (Oryctolagus cuniculus, UniProt P06186); assay: Relative binding affinity, competition with tritiated Product R, rabbit uterus cytosol; details: reference hormone progestérone
T2 construct: les utérus sont prélevés, pesés et homogénéisés à 0°C; from tissue; host or cells: uterus cytosol (105 000 g supernatant) of estradiol-primed immature female rabbits
T2 sequence (P06186 1-930): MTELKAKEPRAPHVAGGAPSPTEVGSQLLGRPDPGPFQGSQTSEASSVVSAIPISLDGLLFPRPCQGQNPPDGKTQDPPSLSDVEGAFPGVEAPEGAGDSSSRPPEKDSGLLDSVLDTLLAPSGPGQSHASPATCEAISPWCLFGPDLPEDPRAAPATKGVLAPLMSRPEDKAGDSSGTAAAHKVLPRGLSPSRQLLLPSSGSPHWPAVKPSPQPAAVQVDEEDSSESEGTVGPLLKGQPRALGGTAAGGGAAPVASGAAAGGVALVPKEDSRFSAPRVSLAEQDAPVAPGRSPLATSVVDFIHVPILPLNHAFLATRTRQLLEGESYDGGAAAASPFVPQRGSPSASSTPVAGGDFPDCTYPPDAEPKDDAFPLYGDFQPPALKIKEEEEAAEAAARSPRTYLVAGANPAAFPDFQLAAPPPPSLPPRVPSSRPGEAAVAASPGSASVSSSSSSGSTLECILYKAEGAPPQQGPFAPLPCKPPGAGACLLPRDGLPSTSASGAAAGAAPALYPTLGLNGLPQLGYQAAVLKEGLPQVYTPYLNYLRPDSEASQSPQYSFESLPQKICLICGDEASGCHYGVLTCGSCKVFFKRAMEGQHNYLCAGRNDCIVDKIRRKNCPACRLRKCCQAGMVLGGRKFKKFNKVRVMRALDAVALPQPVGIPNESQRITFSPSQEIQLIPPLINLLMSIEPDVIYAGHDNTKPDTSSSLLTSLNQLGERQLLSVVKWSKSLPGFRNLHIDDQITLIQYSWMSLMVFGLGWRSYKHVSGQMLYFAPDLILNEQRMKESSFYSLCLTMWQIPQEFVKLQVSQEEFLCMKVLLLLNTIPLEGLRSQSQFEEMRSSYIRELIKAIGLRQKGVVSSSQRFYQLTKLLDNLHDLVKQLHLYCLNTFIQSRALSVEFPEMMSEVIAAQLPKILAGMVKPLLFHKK
Description: Récepteur progestogène de l'utérus de lapine :
Des lapines impubères d'environ 1 kg reçoivent une application cutanée de 25 microgrammes d'estradiol. 5 jours après ce traitement, les animaux sont sacrifiés, les utérus sont prélevés, pesés et homogénéisés à 0°C, à l'aide d'un Potter teflon-verre dans une solution tamponnée TS (Tris 10mM, saccharose 0,25 M, HCl pH 7,4) (1 g de tissu pour 50 ml de TS). L'homogénat est ensuite ultracentrifugé (105 000 g x 90 mn) à 0°C. Des aliquotes du surnageant ainsi obtenu, sont incubées à 0°C pendant un temps t, avec une concentration constante (T) de Produit R tritié (17,21-diméthyl 19-nor 4,9-pregnadiène-3,20-dione) en présence de concentrations croissantes (0 - 2 500. 10⁻⁹M) soit de R froid, soit de progestérone froide, soit du produit froid à tester. La concentration de R tritié lié (B) est ensuite mesurée dans chaque incubat par la technique d'adsorption au charbon dextran.
as §1, §2, §3, §4, §5, §6

Compound | affinité relative de liaison (ARL) Glucocorticoïde ([1]; incubation 1H at 0°C) | affinité relative de liaison (ARL) Glucocorticoïde ([1]; incubation 24H at 0°C) | affinité relative de liaison (ARL) Progestogène ([2]; incubation 2H at 0°C) | affinité relative de liaison (ARL) Progestogène ([2]; incubation 24H at 0°C)
CSc1ccc([C@H]2C[C@@]3(C)[C@@H](CC[C@@]3(O)C#CCO)[C@@H]3CCC4=CC(=O)CCC4=C32)cc1 [Exemple 1, 17béta-hydroxy 17alpha-(3-hydroxy 1-propynyl) 11béta-[4-(méthylthio)phényl] estra-4,9-dien-3-one] | 133 | 99 | 72 | 86
CSc1ccc([C@H]2C[C@@]3(C)[C@@H](CC[C@@]3(O)C#CCF)[C@@H]3CCC4=CC(=O)CCC4=C32)cc1 [Exemple 3, 17alpha-(3-fluoro 1-propynyl) 17béta-hydroxy 11béta-[4-(méthylthio)phényl] estra-4,9-dièn-3-one] | 142 | 169 | 55 | 225
CSc1ccc([C@H]2C[C@@]3(C)[C@@H](CC[C@@]3(O)C#CCCl)[C@@H]3CCC4=CC(=O)CCC4=C32)cc1 [Exemple 4, 17alpha-(3-chloro 1-propynyl) 17béta-hydroxy 11béta-[4-(méthylthio)phényl] estra-4,9-dièn-3-one] | 156 | 139 | 70 | 351

— EP0369881A1, “Compounds derived from the 3-keto-delta 4,9-19-nor steroid structure, and their use as medicaments” (ROUSSEL-UCLAF, priority 1988, dated 1990)
